From ChEMBL document CHEMBL1126579, “6-Azasteroids: potent dual inhibitors of human type 1 and 2 steroid 5 alpha-reductase” (J Med Chem, 1993)

Experiments:
[1] = target: T1, 3-oxo-5-alpha-steroid 4-dehydrogenase 1 (Homo sapiens, UniProt P18405); assay: Inhibition of recombinant human 5-alpha reductase-1 […] after pre-incubation for 10 minutes
T1 sequence (P18405 whole entry): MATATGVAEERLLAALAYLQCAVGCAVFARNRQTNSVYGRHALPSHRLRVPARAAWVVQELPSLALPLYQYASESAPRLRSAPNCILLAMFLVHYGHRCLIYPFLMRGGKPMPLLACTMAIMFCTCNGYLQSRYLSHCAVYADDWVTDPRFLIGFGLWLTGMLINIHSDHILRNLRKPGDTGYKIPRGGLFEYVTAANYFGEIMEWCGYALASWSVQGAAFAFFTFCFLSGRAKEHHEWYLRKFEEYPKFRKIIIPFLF

Rattus norvegicus = assay: In vivo evaluation in chronic castrated rat to inhibit T-stimulated prostate growth expressed as percentage reduction; assay type: functional, Prostate gland; design: concentration or dose not given beside the values
[2] = target: T2, 3-oxo-5-alpha-steroid 4-dehydrogenase 2 (Homo sapiens, UniProt P31213); assay: Inhibition of recombinant human 5-alpha reductase-2 […] after pre-incubation for 10 minutes
T2 sequence (P31213 whole entry): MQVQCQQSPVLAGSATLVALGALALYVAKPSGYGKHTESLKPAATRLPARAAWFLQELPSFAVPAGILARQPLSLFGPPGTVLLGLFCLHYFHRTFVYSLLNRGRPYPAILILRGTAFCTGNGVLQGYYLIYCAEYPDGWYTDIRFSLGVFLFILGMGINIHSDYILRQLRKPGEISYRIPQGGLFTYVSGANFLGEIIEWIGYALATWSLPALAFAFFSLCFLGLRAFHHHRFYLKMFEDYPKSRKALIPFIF

[3] = Half-life in dog; assay type: ADME, organism-based, Canis lupus familiaris; details: in vivo
[4] = Bioavailability after oral administration in dog; assay type: ADME, organism-based, Canis lupus familiaris; details: in vivo

Compound	Ki [1]	IC50 [2]	half-life [3]	bioavailability [4]	Reduction (Rattus norvegicus)	IC50 [1]
C[C@]12CCC(=O)C=C1NCC1C2CC[C@@]2(C)C1CC[C@@H]2C(=O)N1CCNCC1 (some centres undefined)	8600 nM					
CC(C)CC(=O)[C@H]1CCC2C3CNC4=CC(=O)CC[C@]4(C)C3CC[C@@]21C (some centres undefined)	9 nM	0.08 nM			18%	
COC(=O)[C@H]1CCC2C3CNC4=CC(=O)CC[C@]4(C)C3CC[C@@]21C (some centres undefined)	150 nM					
CON(C)C(=O)[C@H]1CCC2C3CNC4=CC(=O)CC[C@]4(C)C3CC[C@@]21C (some centres undefined)	2300 nM	2.4 nM				
CC(C)(C)NC(=O)[C@H]1CCC2C3CNC4=CC(=O)CC[C@]4(C)C3CC[C@@]21C (some centres undefined)	820 nM					
C[C@]12CCC(=O)C=C1NCC1C2CC[C@@]2(C)C1CC[C@@H]2C(=O)N1CCOCC1 (some centres undefined)	2200 nM	7.1 nM				
CC(C)N(C(=O)[C@H]1CCC2C3CNC4=CC(=O)CC[C@]4(C)C3CC[C@@]21C)C(C)C (some centres undefined)	190 nM	0.36 nM				
CC(C)(C)NC(=O)[C@H]1CC[C@H]2[C@@H]3CC=C4C=C(C(=O)O)CC[C@]4(C)[C@H]3CC[C@]12C [EPRISTERIDE]	> 5000 nM	30 nM				
CCN(C)C(=O)[C@H]1CCC2C3CNC4=CC(=O)CC[C@]4(C)C3CC[C@@]21C (some centres undefined)	720 nM	2.8 nM				
C[C@]12CCC(=O)C=C1NCC1C2CC[C@@]2(C)C1CC[C@@H]2C(=O)NC12C[C@H]3C[C@@H](C1)C[C@@H](C2)C3 (some centres undefined)	11 nM				18%	
CC(C)(C)NC(=O)[C@H]1CC[C@H]2[C@@H]3CC[C@H]4NC(=O)C=C[C@]4(C)[C@H]3CC[C@]12C [FINASTERIDE]		0.18 nM			41%	150 nM
C[C@]12CCC(=O)C=C1NCC1C2CC[C@@]2(C)C1CC[C@@H]2C(=O)N(Cc1ccccc1)Cc1ccccc1 (some centres undefined)	75 nM					
C[C@]12CCC(=O)C=C1NCC1C2CC[C@@]2(C)C1CC[C@@H]2C(=O)NC(C1CCCCC1)C1CCCCC1 (some centres undefined)	20 nM	0.4 nM			14%	
CCN(CC)C(=O)[C@H]1CCC2C3CNC4=CC(=O)CC[C@]4(C)C3CC[C@@]21C (some centres undefined)	750 nM	1.5 nM				
C[C@]12CCC(=O)C=C1NCC1C2CC[C@@]2(C)C1CC[C@@H]2C(=O)C1[C@H]2C[C@@H]3C[C@@H](C[C@H]1C3)C2 (some centres undefined)	6.9 nM	0.04 nM			26%	
C[C@]12CCC(=O)C=C1NCC1C2CC[C@@]2(C)C1CC[C@@H]2C(=O)N1CCSCC1 (some centres undefined)	570 nM					

The next lines start with results.

Ki [1]	IC50 [2]	half-life [3]	bioavailability [4]	Compound	Reduction (Rattus norvegicus)	IC50 [1]
20 nM	0.12 nM	12 h		C[C@]12CCC(=O)C=C1NCC1C2CC[C@@]2(C)C1CC[C@@H]2C(=O)NC(c1ccc(Cl)cc1)c1ccc(Cl)cc1 (some centres undefined)	31%	
30 nM	0.09 nM		80%	C[C@]12CCC(=O)C=C1NCC1C2CC[C@@]2(C)C1CC[C@@H]2C(=O)NC(c1ccccc1)c1ccccc1 (some centres undefined)	43%	
20 nM				C[C@]12CCC(=O)C=C1NCC1C2CC[C@@]2(C)C1CC[C@@H]2C(=O)NC(c1ccc(F)cc1)c1ccc(F)cc1 (some centres undefined)	43%	
8.2 nM	0.09 nM			C[C@]12CCC(=O)C=C1NCC1C2CC[C@@]2(C)C1CC[C@@H]2C(=O)NC(c1ccccc1)(c1ccccc1)c1ccccc1 (some centres undefined)	4%	
6000 nM				CC(C)NC(=O)[C@H]1CCC2C3CNC4=CC(=O)CC[C@]4(C)C3CC[C@@]21C (some centres undefined)		
14 nM	0.23 nM			C[C@]12CCC(=O)C=C1NCC1C2CC[C@@]2(C)C1CC[C@@H]2C(=O)NN(c1ccccc1)c1ccccc1 (some centres undefined)	38%	
360 nM				C[C@]12CCC(=O)C=C1NCC1C2CC[C@@]2(C)C1CC[C@@H]2C(=O)NCc1ccccc1 (some centres undefined)		
